In patent publication US10723707B2, “Heterocyclic substituted 2-amino quinazoline derivatives for the treatment of viral infections” (JANSSEN SCIENCES IRELAND UNLIMITED COMPANY, priority 2012, dated 2020):

How the values were obtained:
Format in all cases: cell-based
[1] = target: T1, human TLR7 (Homo sapiens, UniProt Q9NYK1); assay: TLR7 cellular NFκB-luc reporter assay in transiently transfected HEK293 cells; conditions: lowest effective concentration, 6 hours incubation
T1 construct: expressed in transfected cells; host or cells: HEK293
T1 sequence (Q9NYK1 27-1049): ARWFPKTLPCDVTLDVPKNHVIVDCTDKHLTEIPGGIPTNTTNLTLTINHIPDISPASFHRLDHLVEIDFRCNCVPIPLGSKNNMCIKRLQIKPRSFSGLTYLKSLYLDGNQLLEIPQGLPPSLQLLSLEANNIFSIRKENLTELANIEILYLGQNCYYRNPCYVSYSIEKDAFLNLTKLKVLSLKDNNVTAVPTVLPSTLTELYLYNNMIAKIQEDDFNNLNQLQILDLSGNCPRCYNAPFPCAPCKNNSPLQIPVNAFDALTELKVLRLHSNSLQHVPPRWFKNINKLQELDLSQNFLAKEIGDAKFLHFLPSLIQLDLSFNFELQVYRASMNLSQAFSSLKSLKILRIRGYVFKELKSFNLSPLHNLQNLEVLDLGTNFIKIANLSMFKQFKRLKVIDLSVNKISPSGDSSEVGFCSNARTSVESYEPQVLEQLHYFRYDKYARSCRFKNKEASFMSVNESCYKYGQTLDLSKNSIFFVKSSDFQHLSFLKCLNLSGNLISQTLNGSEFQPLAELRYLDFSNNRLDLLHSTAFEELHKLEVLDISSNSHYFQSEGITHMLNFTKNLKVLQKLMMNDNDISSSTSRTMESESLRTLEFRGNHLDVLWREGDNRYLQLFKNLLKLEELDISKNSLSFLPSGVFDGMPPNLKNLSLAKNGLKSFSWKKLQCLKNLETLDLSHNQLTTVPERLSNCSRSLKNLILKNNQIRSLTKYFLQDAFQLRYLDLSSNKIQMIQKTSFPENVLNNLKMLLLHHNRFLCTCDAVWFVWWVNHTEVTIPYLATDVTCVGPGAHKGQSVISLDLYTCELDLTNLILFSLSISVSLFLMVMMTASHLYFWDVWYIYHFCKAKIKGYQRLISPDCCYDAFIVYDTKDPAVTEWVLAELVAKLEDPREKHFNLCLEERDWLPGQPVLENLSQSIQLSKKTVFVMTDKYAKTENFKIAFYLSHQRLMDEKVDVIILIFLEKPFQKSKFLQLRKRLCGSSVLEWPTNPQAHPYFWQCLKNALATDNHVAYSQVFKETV
Method: (§1) The ability of compounds to activate human TLR7 and/or TLR8 was assessed in a cellular reporter assay using HEK293 cells transiently transfected with a TLR7 or TLR8 expression vector and NFκB-luc reporter construct.
(§2) Briefly, HEK293 cells were grown in culture medium (DMEM supplemented with 10% FCS and 2 mM Glutamine). For transfection of cells in 15 cm dishes, cells were detached with Trypsin-EDTA, transfected with a mix of CMV-TLR7 or TLR8 plasmid (1700 ng), NFκB-luc plasmid (850 ng) and a transfection reagent and incubated for 48 h at 37° C. in a humidified 5% CO2 atmosphere. Transfected cells were then washed in PBS, detached with Trypsin-EDTA and resuspended in medium to a density of 1.25×10^5 cells/mL. Forty microliters of cells were then dispensed into each well in 384-well plates, where 200 nL of compound in 100% DMSO was already present. Following 6 hours incubation at 37° C., 5% CO2, the luciferase activity was determined by adding 15 μL of Steady Lite Plus substrate (Perkin Elmer) to each well and readout performed on a ViewLux ultraHTS microplate imager (Perkin Elmer). Dose response curves were generated from measurements performed in quadruplicates. Lowest effective concentrations (LEC) values, defined as the concentration that induces an effect which is at least two fold above the standard deviation of the assay, were determined for each compound.

[2] = target: T2, human TLR8 (Homo sapiens, UniProt Q9NR97); assay: TLR8 cellular NFκB-luc reporter assay in transiently transfected HEK293 cells; conditions: lowest effective concentration, 6 hours incubation
T2 construct: expressed in transfected cells; host or cells: HEK293
T2 sequence (Q9NR97 27-1041): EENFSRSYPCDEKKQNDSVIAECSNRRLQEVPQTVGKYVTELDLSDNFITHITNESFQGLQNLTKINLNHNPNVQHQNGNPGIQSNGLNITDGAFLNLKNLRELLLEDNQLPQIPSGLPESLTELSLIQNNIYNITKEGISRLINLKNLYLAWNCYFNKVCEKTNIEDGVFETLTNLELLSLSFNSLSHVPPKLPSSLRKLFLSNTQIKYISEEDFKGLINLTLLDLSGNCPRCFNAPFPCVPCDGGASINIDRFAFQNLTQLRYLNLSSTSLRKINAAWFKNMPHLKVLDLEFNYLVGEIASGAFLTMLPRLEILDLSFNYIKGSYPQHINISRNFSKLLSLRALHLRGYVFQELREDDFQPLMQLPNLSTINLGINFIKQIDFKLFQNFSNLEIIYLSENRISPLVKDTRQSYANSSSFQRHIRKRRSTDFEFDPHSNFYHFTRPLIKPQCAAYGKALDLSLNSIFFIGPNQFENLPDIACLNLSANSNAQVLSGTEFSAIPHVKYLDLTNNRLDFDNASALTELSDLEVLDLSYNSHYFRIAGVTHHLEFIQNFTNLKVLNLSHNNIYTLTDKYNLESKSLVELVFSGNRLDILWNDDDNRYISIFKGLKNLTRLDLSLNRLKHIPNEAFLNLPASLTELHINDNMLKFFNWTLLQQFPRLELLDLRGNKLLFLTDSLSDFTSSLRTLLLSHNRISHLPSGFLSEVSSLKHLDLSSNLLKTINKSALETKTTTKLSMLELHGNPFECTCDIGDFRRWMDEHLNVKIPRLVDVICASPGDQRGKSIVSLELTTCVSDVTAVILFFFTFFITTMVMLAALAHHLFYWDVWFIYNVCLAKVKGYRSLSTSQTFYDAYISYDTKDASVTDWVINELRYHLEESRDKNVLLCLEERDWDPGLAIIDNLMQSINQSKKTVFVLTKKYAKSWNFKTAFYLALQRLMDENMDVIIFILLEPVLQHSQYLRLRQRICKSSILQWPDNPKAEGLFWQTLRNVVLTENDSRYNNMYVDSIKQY
Method: as §1, §2

[3] = tested on: interferon-stimulated responsive elements (ISRE); assay: Activation of ISRE promoter elements in HEK-ISREluc cells by conditioned media from PBMC; conditions: Homo sapiens, compound concentration applied to PBMCs, supernatant transferred to HEK-ISREluc cells, 24 hours, read-out: HEK-ISRE luc (LEC)
Method: The potential of compounds to induce IFN-I was also evaluated by measuring the activation of interferon-stimulated responsive elements (ISRE) by conditioned media from PBMC. The ISRE element of sequence GAAACTGAAACT (SEQ ID: 1) is highly responsive to the STAT1-STAT2-IRF9 transcription factor, activated upon binding of IFN-I to their receptor IFNAR (Clontech, PT3372-5W). The plasmid pISRE-Luc from Clontech (ref. 631913) contains 5 copies of this ISRE element, followed by the firefly luciferase ORF. A HEK293 cell line stably transfected with pISRE-Luc (HEK-ISREluc) was established to profile the conditioned PBMC cell culture media.
Briefly, PBMCs were prepared from buffy coats of at least two donors using a standard Ficoll centrifugation protocol. Isolated PBMCs were resuspended in RPMI medium supplemented with 10% human AB serum and 2×10^5 cells/well were dispensed into 384-well plates containing compounds (70 μL total volume). After overnight incubation, 10 μL of supernatant was transferred to 384-well plates containing 5×10^3 HEK-ISREluc cells/well in 30 μL (plated the day before). Following 24 hours of incubation, activation of the ISRE elements was measured by assaying luciferase activity using 40 μL/well Steady Lite Plus substrate (Perkin Elmer) and measured with ViewLux ultraHTS microplate imager (Perkin Elmer). The stimulating activity of each compound on the HEK-ISREluc cells was reported as LEC value, defined as the compound concentration applied to the PBMCs resulting in a luciferase activity at least two fold above the standard deviation of the assay. The LEC in turn indicates the degree of ISRE activation on transfer of a defined amount of PBMC culture medium. Recombinant interferon α-2a (Roferon-A) was used as a standard control compound.

Human TLR 7 (LEC) [1] [µM]	Human TLR 8 (LEC) [2] [µM]	Structure (SMILES)	minimal effective concentration [3] [µM]
0.92	19.8	C[C@@H](Nc1nc(N)nc2cc(F)ccc12)c1ccccn1 (single isomer, unassigned) [Compound 4]	0.59
3.75	>25	COc1ccc2c(N[C@H](C)c3ccccn3)nc(N)nc2c1 (single isomer, unassigned) [Compound 6]	0.64
0.45	3.09	Cc1cc(CNc2nc(N)nc3cccc(F)c23)no1 [Compound 11]	0.082
6.67	>25	CC(Nc1nc(N)nc2cc(C(=O)N(C)C)ccc12)c1ccccn1 (stereo not shown) [Compound 23]	1.62
2.24	>25	C[C@@H](Nc1nc(N)nc2cc(C(=O)N3CCCC3)ccc12)c1ccccn1 (single isomer, unassigned) [Compound 28]	1.57
0.72	>25	C[C@@H](Nc1nc(N)nc2ccccc12)c1ccccn1 (single isomer, unassigned) [Compound 1]	0.61
0.46	5.22	Cc1cc(CNc2nc(N)nc3cc(F)ccc23)no1 [Compound 13]	0.12
0.74	>25	COc1ccc(F)c2nc(N)nc(NCc3cc(C)on3)c12 [Compound 31]	0.46
0.83	5.51	Nc1nc(N[C@@H](CO)[C@@H](O)c2ccccc2)c2ccccc2n1 [Compound 17]	0.16
1.46	>25	COc1cccc2nc(N)nc(N[C@H](C)c3cccc(C)n3)c12 (single isomer, unassigned) [Compound 20]	0.62
4.94		COC(=O)c1ccc2c(N[C@H](C)c3ccccn3)nc(N)nc2c1 (single isomer, unassigned) [Compound 8]	2.11
0.82	16.4	C[C@@H](Nc1nc(N)nc2cc(Cl)ccc12)c1ccccn1 (single isomer, unassigned) [Compound 7]	0.38
6.1	8.85	CCn1ncnc1[C@H](C)Nc1nc(N)nc2cccc(OC)c12 (single isomer, unassigned) [Compound 21]	0.54
0.61	>25	COc1cccc2nc(N)nc(N[C@@H](C)[C@H](O)c3ccccc3)c12 [Compound 15]	0.56
0.082	8.15	COCCOc1cccc2nc(N)nc(NCc3cc(C)on3)c12 [Compound 29]	
0.047	1.94	COc1cccc2nc(N)nc(NCc3cc(C)on3)c12 [Compound 12]	0.036
2.14	>25	CCN(CC)C(=O)c1ccc2c(N[C@H](C)c3ccccn3)nc(N)nc2c1 (single isomer, unassigned) [Compound 26]	7.33
8.25	24.3	C[C@H](Nc1nc(N)nc2cccc(F)c12)c1ccccn1 (single isomer, unassigned) [Compound 18]	7.83
0.53	14.7	Cc1ccc2c(N[C@H](C)c3ccccn3)nc(N)nc2c1 (single isomer, unassigned) [Compound 5]	0.11
5.21	>25	C[C@@H](Nc1nc(N)nc2c(F)cccc12)c1ccccn1 (single isomer, unassigned) [Compound 9]	1.68
0.65	>25	Cc1cc(CNc2nc(N)nc3c(F)cccc23)no1 [Compound 14]	0.13
1.95	6.62	CCc1noc([C@@H](C)Nc2nc(N)nc3cccc(OC)c23)n1 (single isomer, unassigned) [Compound 25]	0.49
14.3	11.0	CC(Nc1nc(N)nc2cc(C(=O)N(C)C(C)C)ccc12)c1ccccn1 (stereo not shown) [Compound 24]	1.75
